Measured values published in article PMC6322304, “Phytohormone treatment induces generation of cryptic peptides with antimicrobial activity in the Moss Physcomitrella patens” (BMC Plant Biology, 2019).
Ends that are not written are not given here.

Experiments:
OPR3 gene = assay: qRT-PCR of pathogenesis-related gene in treated protonema; assay type: cell-based, Physcomitrella patens; conditions: protonema incubated 1 h; MeJA 50 μM to 1 mM, SA 10 μM to 1 mM (Figure S8)
Protocol: Protonemata of the moss P. patens subsp. patens (“Gransden 2004”, Freiburg) were grown in 200 mL liquid Knop medium with 500 mg/L ammonium tartrate under white light with a photon flux of 61 μmol/m^2•s under a 16-h photoperiod at 24°C. For mass spectrometry analysis, five-d-old protonema tissue was treated with 0.4 mM MeJA and incubated for 1 h. […] To analyze antimicrobial activity of secretome five-d-old- protonema tissue was treated with different concentration of MeJA. Treatment with cocktail of protease inhibitors was performed according to the dilution 1:200, as recommended by the manufacturer (P1860 Sigma Aldrich, USA). At least three independent biological replicates were used for each type of analysis. To test the gene expression induced by the peptides, five-d-old protonema tissue was treated with either mock solution or 1 μM peptide solution and harvested after 2, 4, 8 and 24 h later. […]
Total RNA from protonemata was isolated as previously described. Quality and quantity were evaluated using electrophoresis on agarose gel with ethidium bromide staining. Total RNA concentration of samples was precisely measured using the Quant-iT™ RNA Assay Kit, 5–100 ng on a Qubit 3.0 (Invitrogen, US) fluorometer. cDNA was synthesized using the MMLV RT kit (Evrogen, Russia) according to the manufacturer’s recommendations. […]

[1] = test system: E. coli and B. subtilis bacteria; assay type: cell-based, Escherichia coli; Bacillus subtilis
Protocol: (§1) A serial dilution method in sterile 96 Well Collection Plates (Corning 3870) in liquid MHB medium was used to define the minimum inhibitory concentration (MIC) of the peptides against E. coli K-12 MG 1655 and B. subtilis 168 HT as previously described. Diluted peptide (50 μL) in MHB medium was added to each well at the appropriate concentration (128 to 0.25 μg/mL), along with 50 μL of bacterial suspension at a concentration of 10^6 CFU/mL of microbial cells. The experiment was carried out in three replicates. Liquid MHB medium without the addition of the peptide used as a negative control. The plates were incubated at 37°С for 20 h without mixing. The MIC of the peptides was assessed visually and by measuring the spectrophotometric absorbance at 570 nm to identify the concentration that inhibited the visible growth of bacteria.

E. coli K-12 MG 1655 = assay type: cell-based, Escherichia coli; conditions: K-12, 20 h
Protocol: as §1

B. subtilis 168 HT = assay type: cell-based, Bacillus subtilis; conditions: 20 h
Protocol: as §1

| Compound | response of OPR3 transcription to hormone treatment (qRT-PCR) (OPR3 gene) | concentration at which bacterial growth was inhibited ([1]; on day 1 after inoculation, bacterium not named) [µg/mL] | % inhibition, E. coli (E. coli K-12 MG 1655) [%] | MIC, E. coli (E. coli K-12 MG 1655) [µg/mL] | % inhibition, B. subtilis (B. subtilis 168 HT) [%] | MIC, B. subtilis (B. subtilis 168 HT) [µg/mL] | minimum inhibitory concentration (MIC) ([1]; bacterium not given, serial dilution with E. coli and B. subtilis) [µg/mL] |
| --- | --- | --- | --- | --- | --- | --- | --- |
| CC/C=C\CC1C(=O)CCC1CC(=O)OC (centres unmarked) [MeJA, methyl jasmonate] | clear response |  |  |  |  |  |  |
| KIKVAINGFGRIG [synthetic copy of a cellular moss peptide, fragment of glyceraldehyde-3-phosphate dehydrogenase (GAPDH)] |  | 128 |  |  |  |  |  |
| INIINAPLQGFKIA [INIINAPLQGFKIA] |  |  | >90 | 16 | >90 | 32 |  |
| LVQIGTKIVGVGRNYAAH [LVQIGTKIVGVGRNYAAH] |  |  | >90 | 64 | >90 | 64 | 64 |
